Results taken from PubChem BioAssay (NCI).
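Exposure lasted 48 hours, with cells grown in 96-well plates and compounds tested at five concentrations. Abbreviation: GI50, concentration required for 50% inhibition of growth. At the TGI there is no net growth.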

Columns and labels:
Assay in all cases: NCI anticancer screen, dose series, 48 h
NCI-H226 lung = test system: NCI-H226 lung
IGROV1 ovarian = test system: IGROV1 ovarian
HOP-92 NSCLC = test system: HOP-92 NSCLC
CAKI-1 renal = test system: CAKI-1 renal
UACC-62 melanoma = test system: UACC-62 melanoma
MDA-MB-435 = test system: MDA-MB-435
NCI-H460 lung = test system: NCI-H460 lung
SK-MEL-5 melanoma = test system: SK-MEL-5 melanoma
LOX IMVI melanoma = test system: LOX IMVI melanoma
OVCAR-3 ovarian = test system: OVCAR-3 ovarian

| Compound | TGI (NCI-H226 lung) [µM] | TGI (IGROV1 ovarian) [µM] | TGI (HOP-92 NSCLC) [µM] | TGI (CAKI-1 renal) [µM] | TGI (UACC-62 melanoma) [µM] | TGI (MDA-MB-435) [µM] | TGI (NCI-H460 lung) [µM] | TGI (SK-MEL-5 melanoma) [µM] | TGI (LOX IMVI melanoma) [µM] | TGI (OVCAR-3 ovarian) [µM] | GI50 (NCI-H226 lung) [nM] | GI50 (IGROV1 ovarian) [µM] | GI50 (HOP-92 NSCLC) [nM] | GI50 (CAKI-1 renal) [nM] | GI50 (UACC-62 melanoma) [nM] | GI50 (MDA-MB-435) [nM] | GI50 (NCI-H460 lung) [µM] | GI50 (SK-MEL-5 melanoma) [nM] | GI50 (LOX IMVI melanoma) [nM] | GI50 (OVCAR-3 ovarian) [µM] |
| --- | --- | --- | --- | --- | --- | --- | --- | --- | --- | --- | --- | --- | --- | --- | --- | --- | --- | --- | --- | --- |
| O=c1[nH]c(=O)n(C2CC(O)C(CS)O2)cc1F (centres undefined) | > 100 | > 100 | > 96.7 | > 100 | > 100 | > 100 | > 100 | > 100 | > 100 | > 100 | – | – | – | – | – | – | – | – | – | – |
| CNC1C(=O)C(C)C(O)(C(CC(C)C(O)/C=C/C=C/CNC(=O)C(C)(C)C(O)\C(C)=C/C=C\C=C\Cc2cnc(C)o2)OC)C12C(=O)OC2COC (centres undefined) (tested in a mixture with another compound) | 4.92 | > 26.2 | > 51.3 | > 100 | 49.9 | > 100 | > 100 | 18.4 | 31.5 | 34.6 | – | – | – | – | – | – | – | – | – | – |
| Cc1c2c(nn1-c1ccc(S(=O)(=O)/N=C3\SCC(=O)N3C(=O)c3ccccc3)cc1)-c1ccccc1CC2 | 56.4 | > 100 | 66.2 | 65.9 | 37.6 | 60.8 | > 100 | 48.9 | > 100 | 39.1 | 24000 | > 100 | 30900 | 26600 | 18700 | 26100 | 47.5 | 25100 | > 100000 | 15.8 |
| O=C(O)C(Sc1ccc(Cl)cc1)Sc1ccc(Cl)cc1 | > 100 | > 100 | 68.2 | > 100 | 72.1 | > 100 | > 100 | > 100 | > 100 | 82.6 | – | – | – | – | – | – | – | – | – | – |
| COc1ccc(C(=O)/C=C/c2cccnc2Nc2cc(OC)c(OC)c(OC)c2)cc1 | 8.86 | 21.3 | 11.8 | 14.7 | 4.38 | 12.2 | 8.57 | 10.6 | 2.28 | 4.72 | 2510 | 3.03 | 2400 | 2420 | 1710 | 885 | 1.84 | 2200 | 738 | 0.617 |
| COc1cc([C@@H]2c3cc4c(cc3C(O[C@@H]3O[C@@H]5CO[C@@H](c6cccs6)OC5[C@H](O)[C@H]3O)C3COC(=O)[C@@H]32)OCO4)cc(OC)c1O (some centres undefined) | 0.149 | 5.13 | 1.25 | 6.98 | 1.1 | 2.12 | 0.278 | 0.573 | 0.911 | 1.19 | 22.3 | 0.228 | 46.1 | 99.7 | 40.9 | 261 | < 0.005 | 56.7 | 17 | 0.248 |
| Cn1cc(-c2csc(-c3cccc(F)c3)n2)c2cccnc21 | 51.1 | 47.5 | 18.6 | 40.5 | 27.8 | 33.1 | 34.7 | 30.4 | 27.5 | 33.9 | 19400 | 21.2 | 1040 | 16200 | 13800 | 14400 | 17 | 15700 | 14100 | 19 |
| NCCCCn1c2c(c3ccccc3c1=O)C(=O)c1ccccc1-2 | 0.458 | – | 0.535 | 0.555 | 0.422 | 2.28 | 0.614 | 1.25 | 0.346 | 4.22 | 107 | 0.314 | 36.3 | 44.7 | 46.7 | 717 | < 0.0218 | 153 | 26.9 | 0.502 |
| COc1ccc(OC(=O)O[C@H]2[C@H](O[C@H]3[C@@H](O)COC(O[C@H]4C[C@H]5[C@@H]6CC=C7C[C@@H](O)CC[C@]7(C)[C@H]6CC[C@]5(C)[C@H]4[C@H](C)C(=O)CCC(C)C)[C@@H]3OC(C)=O)OC[C@@H](O)[C@@H]2O)cc1 (some centres undefined) | 18.7 | 18.2 | 2.72 | 1.63 | 0.0516 | 0.759 | 3.33 | 0.176 | 0.177 | 24.5 | 580 | 0.335 | 13 | 28.1 | 17.1 | 69.5 | 0.0524 | 34.7 | 26.5 | 10.7 |
| CCCCNC(=O)NS(=O)(=O)c1ccc(N2N=C(c3ccc(C)cc3C)CC2c2ccc(N(C)C)cc2)cc1 (centres undefined) | 21.8 | > 100 | 31.4 | > 100 | 6.12 | 7.59 | 15.9 | 5.42 | 16.5 | 5.72 | 4540 | 4.87 | 2390 | 3380 | 2180 | 2550 | 3.33 | 2220 | 4400 | 2.5 |
| CCOC(=O)c1c(C)n(Cc2ccc(OC)cc2)c2c1cc(O)c1[nH]c3c(c12)CCCC3 | 32.9 | 20.5 | 55.4 | 54.9 | 4.61 | 82 | 27.8 | 3.24 | 16.6 | 18.6 | 15500 | 3.76 | 2500 | 16400 | 1970 | 15900 | 8.63 | 1740 | 3910 | 3.73 |
| COc1ccc(C2CC(=O)c3c(OC)cc(OC)cc3O2)cc1 (centres undefined) | > 100 | > 100 | > 100 | > 100 | > 100 | > 100 | > 100 | > 100 | > 100 | > 100 | > 100000 | > 100 | 18400 | > 100000 | > 100000 | > 100000 | > 100 | > 100000 | > 100000 | > 100 |
| CCCNC(=S)N/N=C(\C)c1ccccn1 | 4.79 | > 100 | > 100 | > 80.7 | 3.28 | > 100 | 4.92 | 2.55 | > 100 | > 100 | 291 | < 0.01 | 115 | 220 | 192 | 530 | 0.242 | 213 | 43.6 | < 0.01 |
